Assay results as given in patent US20260315464A1, “COMPOSITIONS, METHODS, AND SYSTEMS FOR MODULATING SPLICING OF MSH3” (REVIR THERAPEUTICS, INC., priority 2023, published 2026).

Tested on: MSH3
Experiment: QPCR assay for levels of MSH3 upon compound treatment in HEK293T or AD293 cells (fold-change of MSH3 transcript, EC50 of MSH3 downregulation; total MSH3 exons 13/14, exons 20/21; Table 8)
Format: cell-based
Conditions: for mrna remaining at 1 µM / mrna remaining at 10 µM: Homo sapiens, fold-change of the MSH3 transcript, normalized to GAPDH; for mrna remaining at 1 µM: 1 μM compound; for mrna remaining at 10 µM: 10 μM compound; for EC50: EC50 of MSH3 downregulation, XtalPi
In short: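 MSH3 mRNA was quantified by TaqMan qPCR covering exons 13/14, exons 20/21, exon 13/PE14A and exon 20/PE21A, with GAPDH as reference. Cells used were HEK293T or AD293, treated with compound at 1 μM and […].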

EC50 [nM]	SMILES	mrna remaining at 1 µM [%]	mrna remaining at 10 µM [%]
	Cn1nc(Cl)c(-c2cc3c(cn2)CN(c2ccc(O[C@H]4C[C@]5(C)CC[C@](C)(C4)N5)nn2)C3=O)n1 [Compound 460, 6-(5-chloro-2-methyl-2H-1,2,3-triazol-4-yl)-2-(6-(((1R,3s,5S)-1,5-dimethyl-8-azabicyclo[3.2.1]octan-3-yl)oxy)pyridazin-3-yl)-2,3-dihydro-1H-pyrrolo[3,4-c]pyridin-1-one]	80	25
	Cn1ncc(-c2cc3c(cn2)CN(c2ccc(OC4CCC(C)(C)NC(C)(C)C4)nn2)C3=O)n1 (stereo not drawn) [Compound 465, 6-(2-methyl-2H-1,2,3-triazol-4-yl)-2-(6-((2,2,7,7-tetramethylazepan-4-yl)oxy)pyridazin-3-yl)-2,3-dihydro-1H-pyrrolo[3,4-c]pyridin-1-one]	93	115
	Cc1nn(C)cc1-c1cnc2c(c1)C(=O)N(c1ccc(OC3CCC(C)(C)NC(C)(C)C3)nn1)C2 (stereo not drawn) [Compound 479, 3-(1,3-dimethyl-1H-pyrazol-4-yl)-6-(6-((2,2,7,7-tetramethylazepan-4-yl)oxy)pyridazin-3-yl)-6,7-dihydro-5H-pyrrolo[3,4-b]pyridin-5-one]	119	56
363	Cn1nc(Cl)c(-c2cnc3c(c2)C(=O)N(c2ccc(O[C@H]4C[C@]5(C)CC[C@](C)(C4)N5)nn2)C3)n1 [Compound 480, 3-(5-chloro-2-methyl-2H-1,2,3-triazol-4-yl)-6-(6-(((1R,3s,5S)-1,5-dimethyl-8-azabicyclo[3.2.1]octan-3-yl)oxy)pyridazin-3-yl)-6,7-dihydro-5H-pyrrolo[3,4-b]pyridin-5-one]	15	10
	Cn1ncc(-c2cnc3c(c2)C(=O)N(c2ccc(OC4CCC(C)(C)NC(C)(C)C4)nn2)C3)n1 (stereo not drawn) [Compound 485, 3-(2-methyl-2H-1,2,3-triazol-4-yl)-6-(6-((2,2,7,7-tetramethylazepan-4-yl)oxy)pyridazin-3-yl)-6,7-dihydro-5H-pyrrolo[3,4-b]pyridin-5-one]	88	40
	Cc1nn(C)cc1-c1cnc2c(c1)C(=O)N(c1ccc(N(C3CC3)C3CC(C)(C)NC(C)(C)C3)nn1)C2 [Compound 487, 6-(6-(cyclopropyl(2,2,6,6-tetramethylpiperidin-4-yl)amino)pyridazin-3-yl)-3-(1,3-dimethyl-1H-pyrazol-4-yl)-6,7-dihydro-5H-pyrrolo[3,4-b]pyridin-5-one]	133	31
	Cn1nc(Cl)c(-c2cnc3c(c2)C(=O)N(c2ccc(OC4CCC(C)(C)NC(C)(C)C4)nn2)C3)n1 (stereo not drawn) [Compound 488, 3-(5-chloro-2-methyl-2H-1,2,3-triazol-4-yl)-6-(6-((2,2,7,7-tetramethylazepan-4-yl)oxy)pyridazin-3-yl)-6,7-dihydro-5H-pyrrolo[3,4-b]pyridin-5-one]	69	19
	Cc1nn(C)cc1-c1cnc2c(c1)C(=O)N(c1ccc(S[C@H]3C[C@]4(C)CC[C@](C)(C3)N4)nn1)C2 [Compound 490, 3-(1,3-dimethyl-1H-pyrazol-4-yl)-6-(6-(((1R,3s,5S)-1,5-dimethyl-8-azabicyclo[3.2.1]octan-3-yl)thio)pyridazin-3-yl)-6,7-dihydro-5H-pyrrolo[3,4-b]pyridin-5-one]	90	25
	Cn1nc(Cl)c(-c2cnc3c(c2)C(=O)N(c2ccc(OC4CC(C)(C)NC(C)(C)C4)nn2)C3)n1 [Compound 493, 3-(5-chloro-2-methyl-2H-1,2,3-triazol-4-yl)-6-(6-((2,2,6,6-tetramethylpiperidin-4-yl)oxy)pyridazin-3-yl)-6,7-dihydro-5H-pyrrolo[3,4-b]pyridin-5-one]	57	13
690	Cc1nn(C)cc1-c1cnc2c(n1)C(=O)N(c1ccc(N(C)[C@H]3C[C@]4(C)CC[C@](C)(C3)N4)nn1)C2 [Compound 496, 3-(1,3-dimethyl-1H-pyrazol-4-yl)-6-(6-(((1R,3s,5S)-1,5-dimethyl-8-azabicyclo[3.2.1]octan-3-yl)(methyl)amino)pyridazin-3-yl)-6,7-dihydro-5H-pyrrolo[3,4-b]pyrazin-5-one]		
	Cn1ncc(-c2cnc3c(n2)C(=O)N(c2ccc(O[C@H]4C[C@]5(C)CC[C@](C)(C4)N5)nn2)C3)n1 [Compound 498, 6-(6-(((1R,3s,5S)-1,5-dimethyl-8-azabicyclo[3.2.1]octan-3-yl)oxy)pyridazin-3-yl)-3-(2-methyl-2H-1,2,3-triazol-4-yl)-6,7-dihydro-5H-pyrrolo[3,4-b]pyrazin-5-one]	67	52
	Cc1nn(C)nc1-c1cnc2c(n1)C(=O)N(c1ccc(OC3CC(C)(C)NC4(CCC4)C3)nn1)C2 (stereo not drawn) [Compound 500, 3-(2,5-dimethyl-2H-1,2,3-triazol-4-yl)-6-(6-((6,6-dimethyl-5-azaspiro[3.5]nonan-8-yl)oxy)pyridazin-3-yl)-6,7-dihydro-5H-pyrrolo[3,4-b]pyrazin-5-one]	101	22
	Cn1nc(Cl)c(-c2cnc3c(n2)C(=O)N(c2ccc(O[C@H]4C[C@]5(C)CC[C@](C)(C4)N5)nn2)C3)n1 [Compound 503, 3-(5-chloro-2-methyl-2H-1,2,3-triazol-4-yl)-6-(6-(((1R,3s,5S)-1,5-dimethyl-8-azabicyclo[3.2.1]octan-3-yl)oxy)pyridazin-3-yl)-6,7-dihydro-5H-pyrrolo[3,4-b]pyrazin-5-one]	70	18
	Cn1nc(Cl)c(-c2cnc3c(n2)C(=O)N(c2ccc(OC4CCC(C)(C)NC(C)(C)C4)nn2)C3)n1 (stereo not drawn) [Compound 509, 3-(5-chloro-2-methyl-2H-1,2,3-triazol-4-yl)-6-(6-((2,2,7,7-tetramethylazepan-4-yl)oxy)pyridazin-3-yl)-6,7-dihydro-5H-pyrrolo[3,4-b]pyrazin-5-one]	117	62
	Cc1nn(C)nc1-c1cnc2c(c1)C(=O)N(c1ccc(N3CC4CNC4C3)nn1)C2 (stereo not drawn) [Compound 559, 6-(6-(3,6-diazabicyclo[3.2.0]heptan-3-yl)pyridazin-3-yl)-3-(2,5-dimethyl-2H-1,2,3-triazol-4-yl)-6,7-dihydro-5H-pyrrolo[3,4-b]pyridin-5-one]	93	53
	Cc1nn(C)nc1-c1cnc2c(c1)C(=O)N(c1ccc(N3CC4CC3CN4)nn1)C2 (stereo not drawn) [Compound 560, 6-(6-(2,5-diazabicyclo[2.2.1]heptan-2-yl)pyridazin-3-yl)-3-(2,5-dimethyl-2H-1,2,3-triazol-4-yl)-6,7-dihydro-5H-pyrrolo[3,4-b]pyridin-5-one]	81	29
	Cc1nn(C)nc1-c1cnc2c(c1)C(=O)N(c1ccc(N3CC4CCC3CN4)nn1)C2 (stereo not drawn) [Compound 563, 6-(6-(2,5-diazabicyclo[2.2.2]octan-2-yl)pyridazin-3-yl)-3-(2,5-dimethyl-2H-1,2,3-triazol-4-yl)-6,7-dihydro-5H-pyrrolo[3,4-b]pyridin-5-one]	104	35
	Cc1nn(C)nc1-c1cnc2c(c1)C(=O)N(c1ccc(N3CCC4(CCCN4)C3)nn1)C2 (stereo not drawn) [Compound 566, 6-(6-(1,7-diazaspiro[4.4]nonan-7-yl)pyridazin-3-yl)-3-(2,5-dimethyl-2H-1,2,3-triazol-4-yl)-6,7-dihydro-5H-pyrrolo[3,4-b]pyridin-5-one]	133	60
